Converted amounts (≈) assume the structure as drawn.
Experiments:
[1] = tested on: N. gonorrhoeae WHO Q; assay: Liquid broth MIC in Fastidious broth; details: Neisseria gonorrhoeae, read-out: Minimum Inhibitory Concentration (MIC), N. gonorrhoeae WHO Q
[2] = tested on: E. coli ATCC 25922; assay: microbe, parasite or virus in culture; assay type: cell-based; details: Escherichia coli, ATCC25922, read-out: MIC E. coli 25922
[3] = tested on: E. coli AG100A; assay: Broth microdilution MIC in CAMHB; assay type: cell-based; details: Escherichia coli, read-out: MIC E. coli AG100A
[4] = tested on: N. gonorrhoeae ATCC 49226; assay: Liquid broth MIC in Fastidious broth; details: Neisseria gonorrhoeae, ATCC49226, read-out: Minimum Inhibitory Concentration (MIC), N. gonorrhoeae ATCC 49226
[5] = tested on: N. gonorrhoeae WHO K; assay: Liquid broth MIC in Fastidious broth; details: Neisseria gonorrhoeae, read-out: Minimum Inhibitory Concentration (MIC), N. gonorrhoeae WHO K
Protocol: Liquid broth-based assays were used for antibacterial testing of PBP inhibitors in Neisseria gonorrhoeae. Briefly, cryo-preserved bacterial cultures of clinical strains were streaked for isolation on Chocolate Agar (72 g/L (2×) GC Agar Base (BD #228950) and 2% (2×) Hemoglobin was autoclaved at 121° C. for 20 minutes to sterilize. Once cooled to ˜50° C. the 2×GC Agar Base and 2× Hemoglobin solutions are combined and 1% IsoVitaleX Enrichment (BD #211876) was added to the solution). Strains were incubated at 36° C. and 5% CO2 to allow growth of colonies, 24 hours before inoculum preparation. 2-fold serial dilutions of test compounds were conducted in a 96 well plate with a final volume of 75 μL per well at 2-fold the final desired concentration in Fastidious broth (Remel #R07664). For preparation of assay inoculum, a direct suspension was prepared by aseptically swabbing 10-15 colonies from agar plates into culture tubes containing 2 mL of fresh sterile saline. After the dilution plates were set up, direct suspensions were then diluted in a cuvette containing sterile saline and the optical density was measured at 600 nm. Inocula were diluted such that 75 μL of this culture in Fastidious broth results in a starting bacterial concentration of 5×10^5 CFU/mL when added to the dilution plates. The plates were incubated for ˜24 hours at 36° C. and 5% CO2.

[6] = tested on: N. gonorrhoeae FA1090; assay: Liquid broth MIC in Fastidious broth; details: Neisseria gonorrhoeae, FA1090, read-out: Minimum Inhibitory Concentration (MIC), N. gonorrhoeae FA 1090
[7] = target: T1, PBP3 from Pseudomonas aeruginosa (PAO1) (Pseudomonas aeruginosa, UniProt G3XD46); assay: Bocillin-FL fluorescence polarization competition binding, P. aeruginosa PBP3; details: Binding affinity to P. aeruginosa PBP3; fluorescence polarization competition binding assay using Bocillin-FL; read-out: P. aeruginosa PBP3 Potency
T1 construct: made in house
T1 sequence (G3XD46 whole entry): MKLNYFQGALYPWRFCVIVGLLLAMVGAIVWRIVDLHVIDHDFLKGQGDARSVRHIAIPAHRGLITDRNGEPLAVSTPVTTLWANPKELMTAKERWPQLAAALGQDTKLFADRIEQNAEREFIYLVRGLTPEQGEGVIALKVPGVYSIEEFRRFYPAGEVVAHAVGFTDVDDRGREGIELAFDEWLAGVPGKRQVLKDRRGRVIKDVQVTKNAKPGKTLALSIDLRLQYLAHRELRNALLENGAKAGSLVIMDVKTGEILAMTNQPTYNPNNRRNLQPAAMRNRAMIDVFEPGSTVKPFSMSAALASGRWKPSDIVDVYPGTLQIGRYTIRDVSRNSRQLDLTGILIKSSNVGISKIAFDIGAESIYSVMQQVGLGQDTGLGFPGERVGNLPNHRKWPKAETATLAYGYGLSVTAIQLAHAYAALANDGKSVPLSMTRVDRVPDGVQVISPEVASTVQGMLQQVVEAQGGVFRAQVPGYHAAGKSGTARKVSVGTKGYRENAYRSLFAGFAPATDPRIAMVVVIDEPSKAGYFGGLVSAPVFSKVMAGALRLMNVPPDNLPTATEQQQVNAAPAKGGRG
How it was run: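 Purified PBPs pre-incubated with inhibitor (E. coli PBP3 1.5 μM, 30 min; P. aeruginosa PBP3 0.75 μM, A. baumannii PBP1a 1 μM and PBP3 0.2 μM, 15 min), then Bocillin-FL 0.1 μM (0.05 μM for PBP1a) added; FP read up to 60 min. EC50 = concentration halving bound Bocillin-FL.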

[8] = tested on: E. coli D22; assay: microbe, parasite or virus in culture; assay type: cell-based; details: Escherichia coli, D22, read-out: MIC E. coli D22
[9] = tested on: P. aeruginosa ATCC 35151; assay: microbe, parasite or virus in culture; assay type: cell-based; details: Pseudomonas aeruginosa, ATCC35151, read-out: MIC P. aeruginosa ATCC 35151
[10] = tested on: P. aeruginosa (ΔmexAB-oprM); assay: Broth microdilution MIC in CAMHB; assay type: cell-based; details: Pseudomonas aeruginosa; read-out: MIC P. aeruginosa ΔmexAB-oprM
[11] = tested on: N. gonorrhoeae WHO M; assay: Liquid broth MIC in Fastidious broth; details: Neisseria gonorrhoeae, read-out: Minimum Inhibitory Concentration (MIC), N. gonorrhoeae WHO M
[12] = tested on: K. pneumoniae SI-117; assay: microbe, parasite or virus in culture; assay type: cell-based; details: Klebsiella pneumoniae, SI117, read-out: MIC K. pneumoniae SI-117
[13] = tested on: K. pneumoniae 848844; assay: microbe, parasite or virus in culture; assay type: cell-based; details: Klebsiella pneumoniae, 848844, read-out: MIC K. pneumoniae 848844
[14] = tested on: N. gonorrhoeae WHO X; assay: Liquid broth MIC in Fastidious broth; details: Neisseria gonorrhoeae, read-out: Minimum Inhibitory Concentration (MIC), N. gonorrhoeae WHO X
[15] = tested on: N. gonorrhoeae WHO G; assay: Liquid broth MIC in Fastidious broth; details: Neisseria gonorrhoeae, read-out: Minimum Inhibitory Concentration (MIC), N. gonorrhoeae WHO G
[16] = tested on: N. gonorrhoeae CDC-0197; assay: Liquid broth MIC in Fastidious broth; details: Neisseria gonorrhoeae, CDC0197, read-out: Minimum Inhibitory Concentration (MIC), N. gonorrhoeae CDC-0197

| Compound | MIC [1] [µg/mL] | MIC [2] [µg/mL] | MIC [3] [µg/mL] | MIC [4] [µg/mL] | MIC [5] [µg/mL] | MIC [6] [µg/mL] | IC50 [7] [µM] | MIC [8] [µg/mL] | MIC [9] [µg/mL] | MIC [10] [µg/mL] | MIC [11] [µg/mL] | MIC [12] [µg/mL] | MIC [13] [µg/mL] | MIC [14] [µg/mL] | MIC [15] [µg/mL] | MIC [16] [µg/mL] |
| --- | --- | --- | --- | --- | --- | --- | --- | --- | --- | --- | --- | --- | --- | --- | --- | --- |
| CCN1CCN(C(=O)NC(C(=O)N[C@H]2Cc3cccc(C(=O)O)c3OB2O)c2ccc(CP(=O)(O)O)cc2)C(=O)C1=O (stereo partly drawn) [Example 20, (3R)-3-(2-(4-ethyl-2,3-dioxopiperazine-1-carboxamido)-2-(4-(phosphonomethyl)phenyl)acetamido)-2-hydroxy-3,4-dihydro-2H-benzo[e][1,2]oxaborinine-8-carboxylic acid] | < 1 | 8 to 16 (≈ 13.3 to 26.6 µM) | 8 to 16 (≈ 13.3 to 26.6 µM) | < 1 | 1 to 2 (≈ 1.66 to 3.32 µM) | < 1 | < 10 | 2 to 4 (≈ 3.32 to 6.64 µM) | < 1 | 8 to 16 (≈ 13.3 to 26.6 µM) | < 1 | > 128 | > 128 | 1 to 2 (≈ 1.66 to 3.32 µM) | < 1 | < 1 |
| CCN1CCN(C(=O)NC(C(=O)N[C@H]2Cc3cccc(C(=O)O)c3OB2O)c2ccc(P(=O)(O)O)c(O)c2)C(=O)C1=O (stereo partly drawn) [Example 21, (3R)-3-(2-(4-ethyl-2,3-dioxopiperazine-1-carboxamido)-2-(3-hydroxy-4-phosphonophenyl)acetamido)-2-hydroxy-3,4-dihydro-2H-benzo[e][1,2]oxaborinine-8-carboxylic acid] | < 1 | 8 to 16 (≈ 13.2 to 26.5 µM) | 8 to 16 (≈ 13.2 to 26.5 µM) | < 1 | < 1 | < 1 | < 10 | 2 to 4 (≈ 3.31 to 6.62 µM) | < 1 | 32 to 64 (≈ 53 to 106 µM) | < 1 | > 128 | > 128 | < 1 | < 1 | < 1 |
| CCN1CCN(C(=O)NC(C(=O)N[C@H]2Cc3cccc(C(=O)O)c3OB2O)c2cccc(CP(=O)(O)O)c2)C(=O)C1=O (stereo partly drawn) [Example 22, (3R)-3-(2-(4-ethyl-2,3-dioxopiperazine-1-carboxamido)-2-(3-(phosphonomethyl)phenyl)acetamido)-2-hydroxy-3,4-dihydro-2H-benzo[e][1,2]oxaborinine-8-carboxylic acid] | 1 to 2 (≈ 1.66 to 3.32 µM) | 32 to 64 (≈ 53.1 to 106 µM) | 8 to 16 (≈ 13.3 to 26.6 µM) | 1 to 2 (≈ 1.66 to 3.32 µM) | 4 to 8 (≈ 6.64 to 13.3 µM) | < 1 | < 10 | 2 to 4 (≈ 3.32 to 6.64 µM) | < 1 | 8 to 16 (≈ 13.3 to 26.6 µM) | < 1 | > 128 | > 128 | 4 to 8 (≈ 6.64 to 13.3 µM) | < 1 | 1 to 2 (≈ 1.66 to 3.32 µM) |
| CCN1CCN(C(=O)NC(C(=O)N[C@H]2Cc3cccc(C(=O)O)c3OB2O)c2c(F)cc(P(=O)(O)O)cc2F)C(=O)C1=O (stereo partly drawn) [Example 25, (3R)-3-(2-(2,6-difluoro-4-phosphonophenyl)-2-(4-ethyl-2,3-dioxopiperazine-1-carboxamido)acetamido)-2-hydroxy-3,4-dihydro-2H-benzo[e][1,2]oxaborinine-8-carboxylic acid] | 1 to 2 (≈ 1.6 to 3.2 µM) | > 128 | 32 to 64 (≈ 51.3 to 103 µM) | < 1 | 1 to 2 (≈ 1.6 to 3.2 µM) | < 1 | < 10 | 2 to 4 (≈ 3.2 to 6.41 µM) | 2 to 4 (≈ 3.2 to 6.41 µM) | 32 to 64 (≈ 51.3 to 103 µM) | < 1 | > 128 | > 128 | 4 to 8 (≈ 6.41 to 12.8 µM) | < 1 | < 1 |
| CC(=O)NC(C(=O)N[C@H]1Cc2cccc(C(=O)O)c2OB1O)c1ccc(P(=O)(O)O)cc1 (stereo partly drawn) [Example 26, (3R)-3-(2-acetamido-2-(4-phosphonophenyl)acetamido)-2-hydroxy-3,4-dihydro-2H-benzo[e][1,2]oxaborinine-8-carboxylic acid] | 16 to 32 (≈ 34.6 to 69.2 µM) | > 128 | 32 to 64 (≈ 69.2 to 138 µM) | 16 to 32 (≈ 34.6 to 69.2 µM) | 16 to 32 (≈ 34.6 to 69.2 µM) | 16 to 32 (≈ 34.6 to 69.2 µM) | 50 to 250 | 32 to 64 (≈ 69.2 to 138 µM) | 8 to 16 (≈ 17.3 to 34.6 µM) | > 128 | 4 to 8 (≈ 8.66 to 17.3 µM) | > 128 | > 128 | 16 to 32 (≈ 34.6 to 69.2 µM) | 16 to 32 (≈ 34.6 to 69.2 µM) | 16 to 32 (≈ 34.6 to 69.2 µM) |
| CCC(=O)NC(C(=O)N[C@H]1Cc2cccc(C(=O)O)c2OB1O)c1ccc(P(=O)(O)O)cc1 (stereo partly drawn) [Example 27, (3R)-2-hydroxy-3-(2-(4-phosphonophenyl)-2-propionamidoacetamido)-3,4-dihydro-2H-benzo[e][1,2]oxaborinine-8-carboxylic acid] | 16 to 32 (≈ 33.6 to 67.2 µM) | > 128 | > 128 | 16 to 32 (≈ 33.6 to 67.2 µM) | 16 to 32 (≈ 33.6 to 67.2 µM) | 4 to 8 (≈ 8.4 to 16.8 µM) | 10 to 50 | 32 to 64 (≈ 67.2 to 134 µM) | 8 to 16 (≈ 16.8 to 33.6 µM) | > 128 | 4 to 8 (≈ 8.4 to 16.8 µM) | > 128 | > 128 | 16 to 32 (≈ 33.6 to 67.2 µM) | 4 to 8 (≈ 8.4 to 16.8 µM) | 16 to 32 (≈ 33.6 to 67.2 µM) |
| CC(C)C(=O)NC(C(=O)N[C@H]1Cc2cccc(C(=O)O)c2OB1O)c1ccc(P(=O)(O)O)cc1 (stereo partly drawn) [Example 28, (3R)-2-hydroxy-3-(2-isobutyramido-2-(4-phosphonophenyl)acetamido)-3,4-dihydro-2H-benzo[e][1,2]oxaborinine-8-carboxylic acid] | 16 to 32 (≈ 32.6 to 65.3 µM) | > 128 | > 128 | 16 to 32 (≈ 32.6 to 65.3 µM) | 16 to 32 (≈ 32.6 to 65.3 µM) | 4 to 8 (≈ 8.16 to 16.3 µM) | 10 to 50 | 32 to 64 (≈ 65.3 to 131 µM) | 8 to 16 (≈ 16.3 to 32.6 µM) | > 128 | 4 to 8 (≈ 8.16 to 16.3 µM) | > 128 | > 128 | 16 to 32 (≈ 32.6 to 65.3 µM) | 4 to 8 (≈ 8.16 to 16.3 µM) | 16 to 32 (≈ 32.6 to 65.3 µM) |
| CC(C)(C)C(=O)NC(C(=O)N[C@H]1Cc2cccc(C(=O)O)c2OB1O)c1ccc(P(=O)(O)O)cc1 (stereo partly drawn) [Example 29, (3R)-2-hydroxy-3-(2-(4-phosphonophenyl)-2-pivalamidoacetamido)-3,4-dihydro-2H-benzo[e][1,2]oxaborinine-8-carboxylic acid] | 16 to 32 (≈ 31.7 to 63.5 µM) | > 128 | > 128 | 16 to 32 (≈ 31.7 to 63.5 µM) | 16 to 32 (≈ 31.7 to 63.5 µM) | 4 to 8 (≈ 7.93 to 15.9 µM) | 10 to 50 | 8 to 16 (≈ 15.9 to 31.7 µM) | 2 to 4 (≈ 3.97 to 7.93 µM) | 8 to 16 (≈ 15.9 to 31.7 µM) | 4 to 8 (≈ 7.93 to 15.9 µM) | > 128 | > 128 | 16 to 32 (≈ 31.7 to 63.5 µM) | 16 to 32 (≈ 31.7 to 63.5 µM) | 16 to 32 (≈ 31.7 to 63.5 µM) |
| O=C(O)c1cccc2c1OB(O)[C@@H](NC(=O)C(NC(=O)C1CC1)c1ccc(P(=O)(O)O)cc1)C2 (stereo partly drawn) [Example 30, (3R)-3-(2-(cyclopropanecarboxamido)-2-(4-phosphonophenyl)acetamido)-2-hydroxy-3,4-dihydro-2H-benzo[e][1,2]oxaborinine-8-carboxylic acid] | 16 to 32 (≈ 32.8 to 65.5 µM) | > 128 | > 128 | 16 to 32 (≈ 32.8 to 65.5 µM) | 16 to 32 (≈ 32.8 to 65.5 µM) | 4 to 8 (≈ 8.19 to 16.4 µM) | 50 to 250 | 8 to 16 (≈ 16.4 to 32.8 µM) | 8 to 16 (≈ 16.4 to 32.8 µM) | > 128 | 4 to 8 (≈ 8.19 to 16.4 µM) | > 128 | > 128 | 16 to 32 (≈ 32.8 to 65.5 µM) | 4 to 8 (≈ 8.19 to 16.4 µM) | 16 to 32 (≈ 32.8 to 65.5 µM) |
| O=C(O)c1cccc2c1OB(O)[C@@H](NC(=O)C(NC(=O)C1CCCCC1)c1ccc(P(=O)(O)O)cc1)C2 (stereo partly drawn) [Example 31, (3R)-3-(2-(cyclohexanecarboxamido)-2-(4-phosphonophenyl)acetamido)-2-hydroxy-3,4-dihydro-2H-benzo[e][1,2]oxaborinine-8-carboxylic acid] | 16 to 32 (≈ 30.2 to 60.3 µM) | > 128 | > 128 | 16 to 32 (≈ 30.2 to 60.3 µM) | 16 to 32 (≈ 30.2 to 60.3 µM) | 4 to 8 (≈ 7.54 to 15.1 µM) | 10 to 50 | 32 to 64 (≈ 60.3 to 121 µM) | 2 to 4 (≈ 3.77 to 7.54 µM) | > 128 | 4 to 8 (≈ 7.54 to 15.1 µM) | > 128 | > 128 | 16 to 32 (≈ 30.2 to 60.3 µM) | 16 to 32 (≈ 30.2 to 60.3 µM) | 16 to 32 (≈ 30.2 to 60.3 µM) |

Reference: patent US20240270762A1, “PENICILLIN-BINDING PROTEIN INHIBITORS” (priority 2021, published 2024)
